In PubChem BioAssay AID1919017 (Molecular Pharmacology Branch, DTP, NCI, 2023):
Values joined by “and” are separate entries in the source; they are usually repeats but may differ in a detail not shown here. Equal entries are not always repeated.

System: SW1271 complex spheroids with HUVEC/MSC, growth, % test/control
Experiment: Anticancer human tumor SW1271 cell line growth inhibition [AhR];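 further: spheroids exposed to agents for 7 days before readout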
Details: for viability, T/C: stronger effect = lower value; for IC50: curve of compound
Text: Multicellular complex tumor spheroid response to aryl hydrocarbon receptor antagonists in combination with a variety of drugs and investigational agents in selected tumor cell lines
The current study was undertaken to assess response to aryl hydrocarbon receptor antagonists in combination with standard-of-care drugs and investigational agents in solid tumor complex spheroid models. Complex spheroids include a stromal component modeled by human endothelial cells (HUVEC) and fibroblasts modeled by human mesenchymal stem cells (MSCs). The concentration ranges selected for each drug and investigational agent were based upon clinically achievable concentrations if the clinical Cmax of the agent was known.
Compounds. The drugs and investigational agents: BAY 2416964 (NSC825713), GNF351 (NSC835774), CH-223191 (NSC835775), CPI-455 (NSC825282), aza-TdCyd (NSC777586), decitabine (NSC127716), belinostat (NSC758774), entinostat (NSC756642), pevonedistat (NSC761192), tazemetostat (NSC777109), talazoparib (NSC765396), olaparib (NSC753686), selinexor (NSC780203), nedisertib (M3814, NSC802822), bortezomib (NSC756655), venetoclax (NSC766270), doxorubicin (NSC123127), elimusertib (BAY189344, NSC800525), ceralasertib (AZD6738, NSC777638), TAK-243 (NSC785004), alisertib (NSC759677), etoposide (NSC141540), topotecan (NSC609699), eribulin (NSC707389), gemcitabine (NSC613327), carboplatin (NSC241240), cisplatin (NSC119875), and SN-38 (NSC673596) were obtained from the National Cancer Institute (NCI) Developmental Therapeutics Program Chemical Repository (32). The FDA-approved anticancer drug set is available from the Developmental Therapeutics Program at https://dtp.cancer.gov/organization/dscb/obtaining/available plates.htm. […] The stock solutions were prepared in dimethyl sulfoxide (DMSO, Sigma-Aldrich, St. Louis, MO, cat. D2650), except for the platinum compounds which were prepared in saline (Quality Biological, Gaithersburg, MD, cat. 114-055-101), at 800-fold the tested concentration and stored at -70 degrees C prior to their use. All drugs and investigational agents were tested over a range starting from a high concentration at or near the clinical Cmax and decreasing in half-log increments. If the clinical Cmax for an agent had not been determined, the highest concentration tested was 10 microM (Table 1).
Cell Culture. All cells were maintained in an incubator at 37 degrees C and 5% CO2 with 95% humidity. The PDC lines were cultured according to standard operating procedures established by the NCI PDMR (https://pdmr.cancer.gov). Briefly, all PDCs were thawed and cultured in Matrigel-coated flasks prepared with a working solution of 1X Ham's F-12 nutrient mix, without supplementation (Invitrogen, Waltham, MA, cat. 11765054), 100 U/mL penicillin-streptomycin (Invitrogen, cat. 15140122), and 2.5% Matrigel (Corning Inc., Corning, NY, cat. 354248) for the first three passages. All PDCs were cultured in complete DMEM/F-12 media containing advanced DMEM/F-12 (Invitrogen, cat. 12634028), 4.9% defined fetal bovine serum, heat inactivated (HyClone Laboratories Inc., Logan, UT, cat. SH30070.03HI), 389 ng/mL hydrocortisone (Sigma-Aldrich, cat. H4001), 9.7 ng/mL human EGF recombinant protein (Invitrogen, cat. PHG0313), 23.4 microg/mL adenine (Sigma-Aldrich, cat. A2786), 97.3 U/mL penicillin-streptomycin (Invitrogen, cat. 15140122), 1.9 mM L-glutamine (Invitrogen, cat. 25030081), and 9.7 microM Y-27632 dihydrochloride (Tocris Bioscience, Bristol, United Kingdom, cat. 1254). The PDCs were cultured in complete DMEM/F12 media without 10 microM Y-27632 dihydrochloride for at least two passages prior to the screen. The established cell lines NCI-H1341 and […] were cultured in DMEM/F-12, HEPES (Invitrogen, cat. 11330032), 5% defined fetal bovine serum (HyClone Laboratories Inc., cat. SH30070.03), ITS premix universal culture supplement [insulin (5 microg/mL), transferrin (5 microg/mL), and selenious acid (5 ng/mL)] […]

Structure (SMILES) | viability, T/C (compound 0.00949 µM) | viability, T/C (compound 0.03 µM) | viability, T/C (compound 0.0949 µM) | viability, T/C (compound 0.3 µM) | viability, T/C (compound 0.949 µM) | viability, T/C (compound 3 µM) | IC50 | viability, T/C (compound 0.000316 µM) | viability, T/C (compound 0.001 µM) | viability, T/C (compound 0.00316 µM) | viability, T/C (compound 0.01 µM) | viability, T/C (compound 0.0316 µM) | viability, T/C (compound 0.1 µM) | viability, T/C (compound 0.000949 µM) | viability, T/C (compound 0.003 µM) | viability, T/C (compound 0.316 µM) | viability, T/C (compound 1 µM) | viability, T/C (compound 3.16 µM) | viability, T/C (compound 10 µM)
CCN(c1cc(-c2ccc(CN3CCOCC3)cc2)cc(C(=O)NCc2c(C)cc(C)[nH]c2=O)c1C)C1CCOCC1 | 104% and 90.3% and 94.7% | 96.7% and 99.1% and 104% | 86.3% and 110% and 120% | 93.2% and 124% and 111% | 90.6% and 106% and 125% | 102% and 115% and 107% | > 3000 nM | – | – | – | – | – | – | – | – | – | – | – | –
CC[C@@]1(O)C(=O)OCc2c1cc1n(c2=O)Cc2cc3c(CN(C)C)c(O)ccc3nc2-1 | – | – | – | – | – | – | > 100 nM and 75.4 nM | 105% and 80.9% and 102% | 108% and 64.1% and 91.1% | 80.9% and 87% and 83.4% | 91.5% and 70% and 96.8% | 89% and 65% and 78.6% | 74.6% and 45.2% and 70% | – | – | – | – | – | –
CCc1c2c(nc3ccc(O)cc13)-c1cc3c(c(=O)n1C2)COC(=O)[C@]3(O)CC | 64.6% and 71.7% and 61.4% | 67% and 58.3% and 59.9% | 55.6% and 56% and 60.6% | 44.9% and 53.3% and 49.2% | – | – | 177 nM and > 300 nM | – | – | – | – | – | – | 78.1% and 88.3% and 86.2% | 79.8% and 97.7% and 79% | – | – | – | –
COc1cc(C2c3cc4c(cc3C(OC3OC5COC(C)OC5C(O)C3O)C3COC(=O)C23)OCO4)cc(OC)c1O (centres undefined) | – | – | – | – | – | – | – | – | – | – | – | 81.3% and 81.6% and 96.4% | 82.5% and 92.6% and 64.2% | – | – | 63.9% and 54.3% and 41.1% | 61.9% and 51% and 46.1% | 60.1% and 72.8% and 44.8% | 50.8% and 45.9% and 39.2%
COc1cc(Nc2ncc3c(n2)-c2ccc(Cl)cc2C(c2c(F)cccc2OC)=NC3)ccc1C(=O)O | – | – | – | – | – | – | 7650 nM and > 10000 nM | – | – | – | – | 80.7% and 65.3% and 70.4% | 91.2% and 67.1% and 74.3% | – | – | 92.5% and 67% and 66.7% | 83.3% and 64.7% and 68.1% | 72.4% and 61.5% and 57.6% | 43.3% and 49% and 51.4%
